Test results reported in PMC3125149, “SCYX-7158, an Orally-Active Benzoxaborole for the Treatment of Stage 2 Human African Trypanosomiasis” (PLoS Neglected Tropical Diseases, 2011).
Values after ≈ are worked out from the molar mass of the structure shown.

Experiments:
[1] = In vivo pharmacokinetic characterization (abstract summary); set-up: species or system rodents
Experimental: The blood distribution, CNS disposition and pharmacokinetics of SCYX-7158 were evaluated in infected or non-infected rodents following intravenous or oral administration of compounds. Pharmacokinetics and bioavailability of SCYX-7158 were also evaluated in non-infected beagle dogs and cynomolgus monkeys. In-life phases of non-infected rodent studies were performed at Vivisource (Waltham, MA); studies in non-naïve cynomolgus monkeys were performed by SNBL USA (Everett, WA).
Male CD-1 mice (∼25 g), male Sprague-Dawley rats (∼225 g), or male cynomolgus monkeys (∼3–5 kg) were administered test article by either bolus intravenous injection (IV) or oral gavage. Animals in the IV groups received a single 2 mg/kg IV dose. Animals received oral doses of test articles as either single or twice daily doses ranging from 8 mg/kg to 50 mg/kg. All doses were administered as clear colorless solutions in either 50% (v/v) PEG 400: 20% (v/v) ethanol: 30% (v/v) carboxymethylcellulose (0.5% w/v in sterile water for injection) or 2% (v/v) ethanol: 5% (w/v) dextrose in sterile water for injection. Doses were administered in a volume of 4 mL/kg, 2 mL/kg or 1 mL/kg for mice, rats and cynomolgus monkeys, respectively. For pharmacokinetic analysis, blood samples were collected from mice via cardiac puncture under terminal anaesthesia. Serial blood samples were collected from rats via a vascular access port located in the lateral saphenous vein. Mice and rats were euthanized in a CO2 chamber before collection of terminal blood samples or brain tissue. Blood samples were collected into polypropylene tubes containing K2EDTA anticoagulant and stored on ice until centrifuged for the preparation of plasma. Plasma was stored at −70°C. Whole brains were collected following decapitation, blotted dry, placed into polypropylene containers and then immediately frozen at approximately −70°C. CSF was collected from rats via cisterna magna puncture, placed in sterile polypropylene tubes, and stored at approximately −70°C.

T. b. gambiense 108R = experiment: In vitro compound sensitivity assay (resazurin viability); assay type: cell-based; conditions: Trypanosoma brucei, 72 h incubation, n = 1
Excerpt: (§1) The bloodstream-form T. b. brucei 427 strain was obtained from Dr. K. Stuart (Seattle Biomedical Research Institute, Seattle, WA) and was used for routine assessment of compound sensitivity in vitro. Additional strains used in vitro include T. b. rhodesiense STIB900, isolated in 1992 from a patient in Tanzania, and T. b. gambiense 108R, isolated from a patient in Democratic Republic of Congo in 2005. T. b. brucei EATRO 110 was a generous gift from the late William Trager of the Rockefeller University. T. b. brucei TREU 667 strains were kindly provided by F. W. Jennings at the University of Glasgow. Both T. b. brucei EATRO 110 and TREU 667 were cultured according to previously described conditions and used for in vivo studies.[18], [19]
(§2) T. b. brucei was cultured in complete HMI-9 medium,[20] which contains 10% fetal bovine serum (FBS) (Invitrogen, Carlsbad, CA), 10% Serum Plus medium (SAFC Biosciences, Lenexa, KS), and 100 units/mL penicillin and 0.1 mg/mL streptomycin. The trypanosomes were propagated in T-25 vented cap flasks (Corning Inc., Lowell, MA) at 37°C and 5% CO2 with humidity. To ensure log growth phase, trypanosomes were sub-cultured at appropriate dilutions (typically 1∶100) every 2–3 days in fresh HMI-9 medium. T. b. rhodesiense parasites were grown in MEM medium with Earle's salts supplemented with 15% horse serum. For T. b. gambiense, the MEM medium was supplemented with 5% heat-inactivated fetal calf serum (FCS) and 15% human serum.[21] L929 mouse fibroblast cells (ATCC CCL1, American Type Culture Collection, Rockville, MD) were used to determine parasite versus mammalian cell selectivity. Cells were cultured in Dulbecco's Modified Eagle Medium (DMEM), supplemented with 10% FBS, L-glutamine and 100 units/mL penicillin and 0.1 mg/mL streptomycin. MDCKII-hMDR1 cells were generously provided by P. Borst at the Netherlands Kancer Institute. Cells were cultured in DMEM with Glutamax, 10% (v/v) FBS, and 100 units/mL penicillin and 0.1 mg/mL streptomycin. Cell monolayers were fed with cell culture media 24 h after seeding and used for permeability studies 3 days later.
(§3) Compounds to be tested were serially diluted in DMSO and added to 96-well plates to give final concentrations ranging from 5 to 0.01 µg/mL. T. b. brucei parasites in the log phase of growth were diluted in HMI-9 media and added to each well for a final concentration of 1×10^4 parasites per well. For the sensitivity assays using T. b. rhodesiense and T. b. gambiense, pararasites were cultured in MEM supplemented with Baltz components (8), diluted in the aforementioned culture media, and added to each well at a density of 1×10^3 cells/well. The final concentration of DMSO was 0.5% and the total volume was 100 µL/well. After a 72 h incubation, resazurin (Sigma-Aldrich, St. Louis, MO) was added to each well [20 µL of 25 mg/100 mL stock in phosphate buffered saline (PBS)] and incubated for an additional 4–6 h.[22] To assess cell viability, fluorescence was quantified using an EnVision Multilabel Plate Reader (Perkin Elmer, Waltham, MA) at an excitation wavelength of 530 nm and emission of 590 nm. Triplicate data points were averaged to generate sigmoidal dose-response curves and determine IC50 values using XLfit curve fitting software from IDBS (Guilford, UK). The IC50 is defined as the amount of compound required to decrease parasite or cell viability by 50% compared to those grown in the absence of the test compound. […]

T. b. brucei 427 = experiment: as above; assay type: cell-based; conditions: Trypanosoma brucei
Excerpt: as §1, §2, §3

[2] = tested on: T. b. rhodesiense STIB 900; experiment: as above; assay type: cell-based; conditions: Trypanosoma brucei; 72 h incubation; n = 1
Excerpt: as §1, §2, §3

Lipophilicity = assay type: physicochemical
Excerpt: Table 3 In vitro physicochemical and ADME properties of SCYX-7158. | column: Value

With `CC1(C)OB(O)c2cc(NC(=O)c3ccc(F)cc3C(F)(F)F)ccc21` [SCYX-7158] the half-life ([1]; male, rodents and non-human primates, plasma, read-out: elimination half-life (converted)) was 24 h, the “brain AUC0–24 hr” value ([1]; rodents, 25 mg/kg oral dose) was greater than 100000 ng·h/mL and the “brain Cmax” value ([1]; rodents, 25 mg/kg oral dose) was greater than 10000 ng/mL. For the same molecule, the IC50 (T. b. gambiense 108R) was 0.165 µg/mL (≈ 0.449 µM), the IC50 (T. b. brucei 427; 72 h incubation, n = 9) was 0.292 ± 0.019 µg/mL (≈ 0.795 µM) and the MIC (T. b. brucei 427; T. b. brucei S427, visual inspection) was 0.6 µg/mL (≈ 1.63 µM). For the same molecule, the IC50 [2] was 0.294 µg/mL (≈ 0.801 µM) and the logD (Lipophilicity) was 3.51.
